Each structure is given as a SMILES string.

This assay concerns child with PMM2-CDG. In words: Single patient (P1) study: clinical efficacy (ICARS, NPCRS, BMI, weight). The assay is classed as in vivo, human. The settings on record: same patient, five months acetazolamide before epalrestat; from 66. The procedure:
Prospectively collected clinical and laboratory data in 24 PMM2-CDG patients: The genetic, laboratory, metabolic, and clinical data of 24 PMM2-CDG patients were evaluated (TABLES 2A and 2B). Disease severity was assessed by Nijmegen Pediatric CDG Rating Scale (NPCRS), (most severe=82; mild (0-14), moderate (15-25), severe (>26)) (Achouitar et al., J Inherit Metab Dis 34:923-927, 2011; and Martinez-Monseny et al., Ann Neurol 85:740-751, 2019). Patient P1 and twin patients P4 and P5 also were discussed elsewhere (Qian et al., JIMD Rep 56:27-33, 2020; and Jaeken et al., Ped Res 14:179, 1980). P1, enrolled in a single IND clinical trial, was additionally evaluated by the International cooperative ataxia rating scale (ICARS) (Trouillas et al., J Neurol Sci 145:205-211, 1997), which assesses limb ataxia, dysarthria, posture and gait disturbances, and oculomotor disorders (0=normal; 100=most severe). Urinary polyols including sorbitol and mannitol were analyzed by GC/MS in 23 out of the 24 PMM2-CDG patients (patient P6 was deceased). In addition, functional in vitro data was collected from the fibroblasts of P1-P6, P8, P10, P17, P19, and P24.
Study design: An open label, single patient (P1) compassionate use study was designed to assess the safety and tolerability of oral epalrestat therapy in a child with PMM2-CDG.
Patient assessment: Prior to the first dose of epalrestat and at 1, 2, 3, 6, 8, 9, 12 months during treatment, concomitant medications and vital signs were recorded and the patient was evaluated using the NPCRS. In addition, blood was drawn for serum chemistry, hematology, and plasma levels of epalrestat. Urine was collected for polyol measurement at baseline and twice over the course of 12 months of therapy.
Drug administration: Epalrestat was administered orally, 3 times per day (TID) before meals in a divided dose (0.8 mg/kg/day; 5 mg TID) of epalrestat (Ono Pharmaceuticals, Osaka, Japan) starting on Day 1 of the study.
Safety and efficacy: Safety measures included vital signs, change in CBC, liver function (INR, bilirubin, transaminases, and albumin) in blood, change in liver elastography, and following the pharmacokinetic profile of epalrestat. The efficacy of epalrestat was studied by clinical follow up (physical exam, NPCRS, ICARS), standard laboratory tests, and transferrin glycoform analysis by mass spectrometry.

With `CC(=O)Nc1nnc(S(N)(=O)=O)s1` [acetazolamide], the ICARS score was 56.

These data come from patent US20240003908A1, “POLYOL BIOMARKERS FOR CONGENITAL DISORDERS OF GLYCOSYLATION” (Mayo Foundation for Medical Education and Research, priority 2020, published 2024).
